In patent US20260125371A1, “METHOD FOR INHIBITING CLOSTRIDIOIDES DIFFICILE SPORE GERMINATION” (UNIVERSITY OF NOTRE DAME DU LAC, priority 2022, published 2026):
Values after ≈ are worked out from the molar mass of the structure shown. Like-named read-outs stand apart in the source and are kept apart here.

Columns and labels:
[1] = test system: Bacteroides fragilis HM-709; details: cited from earlier work
[2] = test system: Bifidobacterium longum HM-846; details: cited from earlier work
[3] = test system: Fusobacterium nucleatum HM-992; details: cited from earlier work
C. difficile strains = details: cited from earlier work
C. difficile ATCC 43255 = details: cited from earlier work
S. aureus = experiment: MIC against S. aureus strains; assay type: cell-based; details: Staphylococcus aureus, ATCC29213, 24 h, S. aureus ATCC 29213, 24 h; read-out: MIC (μg/mL) 24 h
Eubacterium sp. HM-178 = details: cited from earlier work
THP-1 cells = experiment: Lactate dehydrogenase (LDH) cytotoxicity assay; assay type: cell-based, human; details: Homo sapiens, THP-1 cells
[4] = test system: Lactobacillus gasseri HM-644; details: cited from earlier work
[5] = test system: Lactobacillus reuteri HM-102; details: cited from earlier work
[6] = C. difficile strains of Table 4

For `FC(F)(F)c1ccc(Oc2ccc(-c3noc(-c4ccc5[nH]ccc5c4)n3)cc2)cc1` [Compound 1], the MIC [1] is given as 4 µg/mL (≈ 9.49 µM), the MIC [2] is given as 0.25 µg/mL (≈ 0.593 µM) and the MIC [3] is given as 1 µg/mL (≈ 2.37 µM). The “IMIC50 (101 strains)” value (C. difficile strains; 101 C. difficile strains) was 4 µg/mL, the “MIC90 (101 strains)” value (C. difficile strains; 101 C. difficile strains) was 8 µg/mL (≈ 19 µM) and the MIC (C. difficile strains; C. difficile 23828, resistant to FDX) was 4 µg/mL (≈ 9.49 µM). The MIC (C. difficile strains; C. difficile 24531, resistant to VAN) was 4 µg/mL (≈ 9.49 µM), the MIC (C. difficile strains; C. difficile 26675, resistant to MTZ) was 4 µg/mL (≈ 9.49 µM) and the MIC (C. difficile strains; C. difficile BAA-1803) was 2 µg/mL (≈ 4.75 µM). The MIC (C. difficile strains; C. difficile BAA-1870) was 4 µg/mL (≈ 9.49 µM), the MIC (C. difficile strains; C. difficile NR49292) was 2 µg/mL (≈ 4.75 µM) and the MIC (C. difficile strains; C. difficile NR49294) was 1 µg/mL (≈ 2.37 µM). The MIC (C. difficile strains; C. difficile NR49302) was 2 µg/mL (≈ 4.75 µM), the MIC (C. difficile strains; C. difficile NR49305) was 4 µg/mL (≈ 9.49 µM) and the MIC (C. difficile strains; C. difficile NR49310) was 2 µg/mL (≈ 4.75 µM). The MIC (C. difficile strains; C. difficile NR49318) was 2 µg/mL (≈ 4.75 µM), the MIC50 (C. difficile strains; [6]) was 4 µg/mL (≈ 9.49 µM) and the MIC90 (C. difficile strains; [6]) was 8 µg/mL (≈ 19 µM). For the same compound, the MIC (C. difficile strains; strain ATCC43598) was 1 µg/mL (≈ 2.37 µM), the MIC (C. difficile strains; strain BAA-1801) was 4 µg/mL (≈ 9.49 µM) and the MIC (C. difficile strains; strain BAA-1803) was 2 µg/mL (≈ 4.75 µM). The MIC (C. difficile strains; strain BAA-1804) was 2 µg/mL (≈ 4.75 µM), the MIC (C. difficile strains; strain BAA-1812) was 2 µg/mL (≈ 4.75 µM) and the MIC (C. difficile strains; strain BAA-1814) was 4 µg/mL (≈ 9.49 µM). The MIC (C. difficile strains; strain BAA-1870) was 4 µg/mL (≈ 9.49 µM), the MIC (C. difficile strains; strain HM-88) was 8 µg/mL (≈ 19 µM) and the MIC (C. difficile strains; strain HM-89) was 8 µg/mL (≈ 19 µM). For the same compound, the MIC (C. difficile strains; strain HM-745) was 8 µg/mL (≈ 19 µM), the MIC (C. difficile strains; strain HM-746) was 4 µg/mL (≈ 9.49 µM) and the MIC (C. difficile strains; strain HM-747) was 8 µg/mL (≈ 19 µM). The MIC (C. difficile strains; strain NR49292) was 2 µg/mL (≈ 4.75 µM), the MIC (C. difficile strains; strain NR49294) was 1 µg/mL (≈ 2.37 µM) and the MIC (C. difficile strains; strain NR49302) was 2 µg/mL (≈ 4.75 µM). For the same compound, the MIC (C. difficile strains; strain NR49305) was 4 µg/mL (≈ 9.49 µM), the MIC (C. difficile strains; strain NR49310) was 2 µg/mL (≈ 4.75 µM) and the MIC (C. difficile strains; strain NR49318) was 2 µg/mL (≈ 4.75 µM). For the same compound, the MIC (C. difficile strains; strain NR-13427) was 4 µg/mL (≈ 9.49 µM), the MIC (C. difficile strains; strain NR-13428) was 8 µg/mL (≈ 19 µM) and the MIC (C. difficile strains; strain NR-13429) was 8 µg/mL (≈ 19 µM). The MIC (C. difficile strains; strain NR-13430) was 8 µg/mL (≈ 19 µM), the MIC (C. difficile strains; strain NR-13431) was 4 µg/mL (≈ 9.49 µM) and the MIC (C. difficile strains; strain NR-13433) was 4 µg/mL (≈ 9.49 µM). The MIC (C. difficile strains; strain NR-13434) was 4 µg/mL (≈ 9.49 µM), the MIC (C. difficile strains; strain NR-13435) was 4 µg/mL (≈ 9.49 µM) and the MIC (C. difficile strains; strain NR-13436) was 8 µg/mL (≈ 19 µM). For the same compound, the MIC (C. difficile strains; strain NR-13437) was 8 µg/mL (≈ 19 µM), the MIC (C. difficile strains; strain NR-13438) was 4 µg/mL (≈ 9.49 µM) and the MIC (C. difficile strains; strain NR-13553) was 4 µg/mL (≈ 9.49 µM). For the same compound, the MIC (C. difficile strains; strain NR-32882) was 4 µg/mL (≈ 9.49 µM), the MIC (C. difficile strains; strain NR-32883) was 4 µg/mL (≈ 9.49 µM) and the MIC (C. difficile strains; strain NR-32884) was 4 µg/mL (≈ 9.49 µM). The MIC (C. difficile strains; strain NR-32885) was 8 µg/mL (≈ 19 µM), the MIC (C. difficile strains; strain NR-32886) was 4 µg/mL (≈ 9.49 µM) and the MIC (C. difficile strains; strain NR-32887) was 8 µg/mL (≈ 19 µM). The MIC (C. difficile strains; strain NR-32888) was 8 µg/mL (≈ 19 µM), the MIC (C. difficile strains; strain NR-32889) was 4 µg/mL (≈ 9.49 µM) and the MIC (C. difficile strains; strain NR-32890) was 4 µg/mL (≈ 9.49 µM). For the same compound, the MIC (C. difficile strains; strain NR-32891) was 8 µg/mL (≈ 19 µM), the MIC (C. difficile strains; strain NR-32892) was 4 µg/mL (≈ 9.49 µM) and the MIC (C. difficile strains; strain NR-32895) was 2 µg/mL (≈ 4.75 µM). The MIC (C. difficile strains; strain NR-32896) was 2 µg/mL (≈ 4.75 µM), the MIC (C. difficile strains; strain NR-32897) was 8 µg/mL (≈ 19 µM) and the MIC (C. difficile strains; strain NR-32900) was 8 µg/mL (≈ 19 µM). For the same compound, the MIC (C. difficile strains; strain NR-32903) was 8 µg/mL (≈ 19 µM), the MIC (C. difficile strains; strain NR-32904) was 4 µg/mL (≈ 9.49 µM) and the MIC (C. difficile strains; strain NR-49277) was 4 µg/mL (≈ 9.49 µM). The MIC (C. difficile strains; strain NR-49278) was 4 µg/mL (≈ 9.49 µM), the MIC (C. difficile strains; strain NR-49279) was 4 µg/mL (≈ 9.49 µM) and the MIC (C. difficile strains; strain NR-49280) was 8 µg/mL (≈ 19 µM). The MIC (C. difficile strains; strain NR-49281) was 4 µg/mL (≈ 9.49 µM), the MIC (C. difficile strains; strain NR-49282) was 8 µg/mL (≈ 19 µM) and the MIC (C. difficile strains; strain NR-49283) was 8 µg/mL (≈ 19 µM). For the same compound, the MIC (C. difficile strains; strain NR-49284) was 8 µg/mL (≈ 19 µM), the MIC (C. difficile strains; strain NR-49285) was 4 µg/mL (≈ 9.49 µM) and the MIC (C. difficile strains; strain NR-49286) was 4 µg/mL (≈ 9.49 µM). The MIC (C. difficile strains; strain NR-49287) was 4 µg/mL (≈ 9.49 µM), the MIC (C. difficile strains; strain NR-49288) was 4 µg/mL (≈ 9.49 µM) and the MIC (C. difficile strains; strain NR-49289) was 8 µg/mL (≈ 19 µM). For the same compound, the MIC (C. difficile strains; strain NR-49290) was 8 µg/mL (≈ 19 µM), the MIC (C. difficile strains; strain NR-49291) was 8 µg/mL (≈ 19 µM) and the MIC (C. difficile strains; strain NR-49293) was 4 µg/mL (≈ 9.49 µM). The MIC (C. difficile strains; strain NR-49295) was 4 µg/mL (≈ 9.49 µM), the MIC (C. difficile strains; strain NR-49296) was 4 µg/mL (≈ 9.49 µM) and the MIC (C. difficile strains; strain NR-49297) was 4 µg/mL (≈ 9.49 µM). For the same compound, the MIC (C. difficile strains; strain NR-49298) was 4 µg/mL (≈ 9.49 µM), the MIC (C. difficile strains; strain NR-49299) was 4 µg/mL (≈ 9.49 µM) and the MIC (C. difficile strains; strain NR-49300) was 4 µg/mL (≈ 9.49 µM). For the same compound, the MIC (C. difficile strains; strain NR-49301) was 4 µg/mL (≈ 9.49 µM), the MIC (C. difficile strains; strain NR-49303) was 4 µg/mL (≈ 9.49 µM) and the MIC (C. difficile strains; strain NR-49304) was 4 µg/mL (≈ 9.49 µM). The MIC (C. difficile strains; strain NR-49306) was 4 µg/mL (≈ 9.49 µM), the MIC (C. difficile strains; strain NR-49307) was 4 µg/mL (≈ 9.49 µM) and the MIC (C. difficile strains; strain NR-49308) was 8 µg/mL (≈ 19 µM). The MIC (C. difficile strains; strain NR-49309) was 4 µg/mL (≈ 9.49 µM), the MIC (C. difficile strains; strain NR-49311) was 4 µg/mL (≈ 9.49 µM) and the MIC (C. difficile strains; strain NR-49312) was 8 µg/mL (≈ 19 µM). For the same compound, the MIC (C. difficile strains; strain NR-49313) was 4 µg/mL (≈ 9.49 µM), the MIC (C. difficile strains; strain NR-49314) was 4 µg/mL (≈ 9.49 µM) and the MIC (C. difficile strains; strain NR-49315) was 4 µg/mL (≈ 9.49 µM). The MIC (C. difficile strains; strain NR-49316) was 4 µg/mL (≈ 9.49 µM), the MIC (C. difficile strains; strain NR-49317) was 8 µg/mL (≈ 19 µM) and the MIC (C. difficile strains; strain NR-49319) was 8 µg/mL (≈ 19 µM). For the same compound, the MIC (C. difficile strains; strain NR-49320) was 4 µg/mL (≈ 9.49 µM), the MIC (C. difficile strains; strain NR-49321) was 8 µg/mL (≈ 19 µM) and the MIC (C. difficile strains; strain NR-49323) was 8 µg/mL (≈ 19 µM). The MIC (C. difficile strains; strain NR-49324) was 8 µg/mL (≈ 19 µM), the MIC (C. difficile strains; strain NR-49325) was 8 µg/mL (≈ 19 µM) and the MIC (C. difficile strains; strain NR-49326) was 4 µg/mL (≈ 9.49 µM). The MIC (C. difficile strains; strain NR-49327) was 4 µg/mL (≈ 9.49 µM), the MIC (C. difficile strains; strain NR-49328) was 4 µg/mL (≈ 9.49 µM) and the MIC (C. difficile strains; strain NR-49329) was 4 µg/mL (≈ 9.49 µM). The MIC (C. difficile strains; strain RMA23691) was 4 µg/mL (≈ 9.49 µM), the MIC (C. difficile strains; strain RMA23828) was 4 µg/mL (≈ 9.49 µM) and the MIC (C. difficile strains; strain RMA24531) was 4 µg/mL (≈ 9.49 µM). The MIC (C. difficile strains; strain RMA24923) was 4 µg/mL (≈ 9.49 µM), the MIC (C. difficile strains; strain RMA26675) was 4 µg/mL (≈ 9.49 µM) and the MIC (C. difficile strains; strain RMA27081) was 2 µg/mL (≈ 4.75 µM). For the same compound, the MIC (C. difficile strains; strain RMA27173) was 4 µg/mL (≈ 9.49 µM), the MIC (C. difficile ATCC 43255; C. difficile ATCC43255) was 2 µg/mL (≈ 4.75 µM) and the MIC (C. difficile ATCC 43255; C. difficile ATCC 43255, earlier publication) was 4 µg/mL (≈ 9.49 µM). The MIC (C. difficile ATCC 43255; strain ATCC43255) was 2 µg/mL (≈ 4.75 µM), the MIC (S. aureus) was 4 µg/mL (≈ 9.49 µM) and the MIC (Eubacterium sp. HM-178) was 2 µg/mL (≈ 4.75 µM). For the same compound, the IC50 (THP-1 cells; 24 h, read-out: LDH (IC50)) was 69 ± 6 µg/mL (≈ 164 µM), the IC50 (THP-1 cells; read-out: toxicity IC50 (LDH assay)) was > 50 µg/mL and the MIC [4] was >128 µg/mL. The MIC [5] was >128 µg/mL.
